# Reference: PubChem BioAssay (NCI)
#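 These data come from cells grown in 96-well plates and exposed to compound for 48 hours at five concentrations. At the GI50, growth is halved. TGI: concentration producing complete growth inhibition.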 *1 amine or outer side, *2 acyl side, *3 side chain or, on linkers, in order; H or OH if unused. Where a SMILES comes first, the peptide text is derived from it. The star is where a group is joined. γGlu = O=C(O)[CH](CCC(=O)[*:2])N[*:1]; NHOH = ON*
# Key:
# Test in all cases: NCI-60 cell line screen, 48 h
# NCI-H522 lung = test system: NCI-H522 lung
# PC-3 prostate = test system: PC-3 prostate
# MOLT-4 leukemia = test system: MOLT-4 leukemia
# 786-0 renal = test system: 786-0 renal
# UACC-257 melanoma = test system: UACC-257 melanoma
# KM12 colon = test system: KM12 colon
# RXF 393 renal = test system: RXF 393 renal
# UACC-62 melanoma = test system: UACC-62 melanoma
# SNB-75 CNS = test system: SNB-75 CNS
# COLO 205 colon = test system: COLO 205 colon
SMILES,TGI (NCI-H522 lung) [µM],TGI (PC-3 prostate) [µM],TGI (MOLT-4 leukemia) [µM],TGI (786-0 renal) [µM],TGI (UACC-257 melanoma) [µM],TGI (KM12 colon) [µM],TGI (RXF 393 renal) [µM],TGI (UACC-62 melanoma) [µM],TGI (SNB-75 CNS) [µM],TGI (COLO 205 colon) [µM],GI50 (NCI-H522 lung) [µM],GI50 (PC-3 prostate) [µM],GI50 (MOLT-4 leukemia) [µM],GI50 (UACC-257 melanoma) [µM],GI50 (KM12 colon) [µM],GI50 (RXF 393 renal) [µM],GI50 (UACC-62 melanoma) [µM],GI50 (SNB-75 CNS) [µM]
COc1cc(/C=C2\CC3C4CC=C5C[C@@H](O)CC[C@]5(C)C4CC[C@]3(C)\C2=N\O)cc(OC)c1OC (stereo partly drawn),> 100,37.8,> 100,72.2,61.1,23.5,25.1,24,> 100,16.9,–,–,–,–,–,–,–,–
CC(=O)Oc1ccc2c(c1)O/C(=C\c1ccc(N(C)C)cc1)C2=O,66.2,> 100,> 100,> 100,> 100,> 100,> 100,> 100,> 100,> 100,–,–,–,–,–,–,–,–
CCCSc1ccc2[nH]c(N3C(=O)/C(=C/c4ccc(O)c(OC)c4)N=C3c3ccccc3)cc2c1,24.3,> 100,20.8,> 100,51.8,> 100,> 100,19.8,> 100,19.5,–,–,–,–,–,–,–,–
O=S(=O)(O)c1cc(O)c(N=NC2S(=O)(=O)OCCOS2(=O)=O)c2ccccc12,> 100,> 100,> 100,> 100,> 100,> 100,> 100,> 100,> 100,> 100,–,–,–,–,–,–,–,–
COC(=O)C12C(=O)CC3CCC1C32C(=O)OC (stereo not drawn),> 100,> 100,> 100,> 100,> 100,> 100,> 100,> 100,> 100,> 100,–,–,–,–,–,–,–,–
COc1cc(OC)c(-n2[nH]c(=O)n(C)c2=O)c(OC)c1,> 100,> 100,> 100,> 100,> 100,> 100,> 100,> 100,> 100,> 100,–,–,–,–,–,–,–,–
Cc1cc(C)c2c(-c3ccccc3)cc(=O)[nH]c2c1,> 100,> 100,> 100,> 100,> 100,> 100,> 100,> 100,> 100,> 100,–,–,–,–,–,–,–,–
COC(=O)[C@H](Cc1ccccc1)NC(=O)N(CCN(CCC#N)C(=O)N[C@H](C(=O)OC)C(C)C)c1ccccc1,> 100,> 100,> 100,> 100,> 100,> 100,> 100,> 100,> 100,> 100,–,–,–,–,–,–,–,–
COc1cc2ncnc(Nc3cccc(Br)c3)c2cc1OC,11.1,> 37.2,> 65.5,4.8,> 40.9,16.1,53,17.5,29.3,20.8,–,–,–,–,–,–,–,–
CCCCCCCCCCCCCOCCOCCOCCCCC(O)CCCCCCCCCC1=C[C@H](C)OC1=O (stereo partly drawn),16.7,71.7,37.2,49.2,37.7,> 100,47.5,54,> 100,52.3,–,–,–,–,–,–,–,–
OC1C2CN3CCN(C2)CC1(c1ccccc1)C3 (stereo not drawn),> 100,> 100,> 100,> 100,> 100,> 100,> 100,> 100,> 100,> 100,–,–,–,–,–,–,–,–
CN(C)N1C(=C(C#N)C#N)C(c2ccccc2)CC1C#N (stereo not drawn),> 100,> 100,> 100,> 100,> 100,> 100,> 100,> 100,> 100,> 100,–,–,–,–,–,–,–,–
CCN1CC2=C(OC(N)=C(C#N)C2c2ccc(Cl)cc2)/C(=C/c2ccc(Cl)cc2)C1 (stereo not drawn),> 100,98.9,> 100,29.8,> 100,> 100,31.9,> 100,34.2,> 100,–,–,–,–,–,–,–,–
COC(=O)C12CCCN1CCC2,> 100,> 100,> 100,> 100,> 100,> 100,> 100,> 100,> 100,> 100,–,–,–,–,–,–,–,–
CCOC(=O)c1ccc(-c2onc(C)c2Br)[nH]1,> 100,> 100,> 100,> 100,> 100,> 100,96.1,> 100,> 100,> 100,–,–,–,–,–,–,–,–
O=C(Nc1ccc(Cl)cc1)c1cc(S(=O)(=O)Nc2nc3ncccc3[nH]2)c(SSc2cc(Cl)c(C(=O)Nc3ccc(Cl)cc3)cc2S(=O)(=O)Nc2nc3ncccc3[nH]2)cc1Cl,> 100,> 100,> 100,> 100,> 100,> 100,> 100,> 100,> 100,> 100,–,–,–,–,–,–,–,–
COC(=O)/C(=C(/C)c1ccco1)P(=O)(OC)OC,> 100,> 100,> 100,> 100,> 100,> 100,> 100,> 100,> 100,> 100,–,–,–,–,–,–,–,–
COc1cc(O)c2c(=O)c3cccc(C)c3[nH]c2c1,> 10,> 10,> 10,> 10,> 10,> 10,> 10,> 10,> 10,> 10,–,–,–,–,–,–,–,–
NC(CCC(=O)NC(CCC(=O)NO)C(=O)NCC(=O)O)C(=O)O (stereo not drawn) (γGlu-Glu(NHOH)-Gly-OH; configuration not given here),> 100,> 100,> 100,> 100,> 100,> 100,> 100,> 100,> 100,> 100,–,–,–,–,–,–,–,–
CCOC(=O)CCCN,> 100,> 100,> 100,> 100,> 100,> 100,> 100,–,> 100,> 100,–,–,–,–,–,–,–,–
COc1ccc(-c2nc(-c3nc4cc(Cl)c(Cl)cc4[nH]3)c3ccccn23)cc1,82,> 100,> 100,–,> 100,> 100,4.26,> 100,3.23,–,3.37,2.58,> 100,5.77,> 100,1.76,5.59,1.73

SMILES,TGI (NCI-H522 lung) [µM],TGI (PC-3 prostate) [µM],TGI (MOLT-4 leukemia) [µM],TGI (786-0 renal) [µM],TGI (UACC-257 melanoma) [µM],TGI (KM12 colon) [µM],TGI (RXF 393 renal) [µM],TGI (UACC-62 melanoma) [µM],TGI (SNB-75 CNS) [µM],TGI (COLO 205 colon) [µM],GI50 (NCI-H522 lung) [µM],GI50 (PC-3 prostate) [µM],GI50 (MOLT-4 leukemia) [µM],GI50 (UACC-257 melanoma) [µM],GI50 (KM12 colon) [µM],GI50 (RXF 393 renal) [µM],GI50 (UACC-62 melanoma) [µM],GI50 (SNB-75 CNS) [µM]
Cc1ccc(N=NC(=Nc2ccc(F)cc2)c2ccc(N(CCC#N)CCC#N)cc2)cc1,63.7,> 100,> 100,> 100,91.3,> 100,> 100,> 100,> 100,> 100,–,–,–,–,–,–,–,–
CC(=O)N1N=C(c2ccccc2)NC(=O)C1c1cc(C)c(O)c(C)c1 (stereo not drawn),37,79.7,> 100,31.7,96.7,> 100,31.2,40,37.5,> 100,–,–,–,–,–,–,–,–
O=c1[nH]nc(-c2ccc3ccccc3c2)[nH]1,> 100,> 100,> 100,> 100,> 100,> 100,> 100,> 100,> 100,> 100,–,–,–,–,–,–,–,–
Cc1ccc2[nH]c3c(c2c1)C1CCC(C(C)(C)C)CC1C1C(=O)N(c2ccc(Oc4ccccc4)cc2)C(=O)C31 (stereo not drawn),45,> 100,7.92,28.3,> 100,> 100,29.1,> 100,9.08,> 100,–,–,–,–,–,–,–,–
CCN(CC)C1=Nc2ccccc2-n2ccnc2C1,> 100,> 100,> 100,> 100,> 100,> 100,> 100,> 100,> 100,> 100,–,–,–,–,–,–,–,–
O=C1c2cccnc2S(=O)(=O)N1c1ccc(Br)cc1,> 100,> 100,> 100,> 100,> 100,> 100,> 100,> 100,> 100,> 100,–,–,–,–,–,–,–,–
CCOC(=O)N1CCC2(CC1)C[C@](Sc1ccccc1)(C(C)=O)[C@H](C)O2,> 100,> 100,> 100,> 100,> 100,> 100,> 100,> 100,> 100,> 100,–,–,–,–,–,–,–,–
COc1ccc(Nc2nc3ccccc3nc2-c2cccs2)cc1OC,> 10,> 10,> 10,> 10,> 10,> 10,> 10,> 10,> 10,> 10,–,–,–,–,–,–,–,–
O=C1C(NS(=O)(=O)c2ccccc2)=C(n2ccnc2)C(=O)c2ccccc21,> 100,> 100,> 100,> 100,> 100,> 100,> 100,> 100,> 100,> 100,–,–,–,–,–,–,–,–
CCCCCCc1cc2cc(C(=O)Nc3nc(C45CC6CC(CC(C6)C4)C5)cs3)c(=O)oc2cc1O,8.33,34.3,49.5,25.6,68,32.6,30.6,25.4,32.4,32.6,–,–,–,–,–,–,–,–
CCOC(=O)Cn1nnc2ccc(Nc3nc4ccccc4nc3C(=O)OCC)cc21,> 100,> 100,> 100,> 100,> 100,> 100,> 100,> 100,46.5,> 100,–,–,–,–,–,–,–,–
O=[N+]([O-])C1=Cc2c(O)ccc(O)c2C2OC=CC12 (stereo not drawn),18.1,31,> 46.8,32.6,29.9,32.5,29.4,15.9,49.5,> 63.8,–,–,–,–,–,–,–,–
COc1ccc(OC)c([N+](=O)[O-])c1-c1nc2sc(Cl)cn2c1/C=N/N=C(N)N,37.9,41.8,23.2,> 100,37.5,46.3,48.3,29.5,24.9,> 100,–,–,–,–,–,–,–,–
COC(=O)c1sc2nc(Nc3ccccc3)c(=Nc3ccccc3)sc2c1C,> 100,> 100,> 100,> 100,> 100,> 100,80.5,> 100,> 100,> 100,–,–,–,–,–,–,–,–
C[C@]12CCC(=O)C=C1CC[C@@H]1[C@@H]2CC[C@]2(C)C(=O)/C(=C/c3ccc([N+](=O)[O-])cc3)C[C@@H]12,> 100,> 100,> 100,> 100,> 100,> 100,73.5,46.2,> 100,> 100,–,–,–,–,–,–,–,–
Nc1nc(N)c2cc(-c3cc4ccccc4[nH]3)ccc2n1,42.4,> 100,53.1,49.6,35.1,43.5,48.4,33.9,> 100,24,–,–,–,–,–,–,–,–
CC1=NN(c2ccccc2)C(=O)/C1=C1\SC(c2ccccc2)(c2ccccc2)c2ccccc21,> 100,> 100,> 100,> 100,> 100,> 100,> 100,> 100,> 100,> 100,–,–,–,–,–,–,–,–
O=C(CSc1nc2ccccc2c(=O)n1-c1ccccc1)N=Nc1c(O)[nH]c2ccc(Br)cc12,9.69,4.03,> 29.4,4.33,52,14,7.68,25.9,11.5,> 35.6,–,–,–,–,–,–,–,–
CC1(N2CCOCC2)CC2C(=[N+]1[O-])CCC/C2=N/O (stereo not drawn),> 100,> 100,> 100,> 100,> 100,> 100,> 100,> 100,> 100,–,–,–,–,–,–,–,–,–
Cc1cc2c(cc1Cl)SSc1cc(Cl)c(C)cc1S(=O)(=O)Nc1nc(N)nn1C(O)n1nc(N)nc1NS2(=O)=O,> 10,> 10,> 10,> 10,> 10,> 10,> 10,–,> 10,> 10,–,–,–,–,–,–,–,–
